Values quoted from earlier work in patent US12702587B2, “Ophthalmic device” (aVISI Ltd., priority 2020, dated 2026).
Where a name gives a salt, the structure may show the parent alone.

Settings: from chitosan nanoparticles; phosphate buffer saline of pH 7.4; in vitro

## CC(C)(C)NC[C@H](O)COc1nsnc1N1CCOCC1 [timolol maleate]
  release of timolol maleate (duration of slow release): up to 24 hours
